Reference: US20250319059A1, “Method for Treating Inflammatory Dysfunction of the Oral Mucosa” (VIVASOR, INC., priority 2022, published 2025)

Columns and labels:
[1] = Safety variables of the FCGS effectiveness study (mortality, adverse events, clinical observations, body weight, ability to eat); type: in vivo, cat
From the text: Mortality—No mortality, whether by natural death or euthanasia, occurred on this study.
An adverse event (AE) is defined as any undesirable event, expected or not, occurring to a study animal during the study, regardless of whether the event was considered to have a causal relation to a study treatment. Adverse events were reported at scheduled times during the study from Day 0 to the last day of the study. Certain adverse events, defined as serious adverse events, were reported in an expedited fashion to allow for possible study protocol modifications. A Serious Adverse Event (SAE) is defined as any medical occurrence that results in hospitalization longer than 24 hours or results in significant disability or morbidity or is life threatening or results in death.
Severity, causality and outcome of adverse events were recorded. Causality is a determination of whether there was a reasonable possibility that the drug may have caused or contributed to an AE. This relationship was described as “unlikely”, “possible”, “probable”, “definite”, or “unknown.”
On Day 0, starting once the RTX was applied to all oral lesions (time 0), clinical observations were carried out by the veterinarian at 10, 30, 45, 60 (±5 minutes), as well as at 2 hours (±10 minutes) and 4 hours (±15 minutes), post-treatment administration. Cats were observed past 4 hours post-treatment administration, as necessary or until resolution of abnormal observations.
Cats were weighed on days 0, 7, 14, and 28. Normal body weights were reported for 24 of the 28 cats. Two cats (one in Cohort 1 and one in Cohort 3) had abnormal (low) weight on day 0, but normal weight by day 28.
Cats' ability to eat was assessed on days 0, 7, 14, and 28. The majority of the cats' ability to eat improved throughout the study. On day 28, no differences in ability to eat were detected between cohorts.

[2] = Preliminary safety study of oral topical application of RTX in cats with gingival inflammation; type: in vivo, cat
From the text: This example provides safety data related to oral topical application of RTX. The primary objective of this study was to determine the initial tolerance of RTX when it is topically administered under anesthesia to the oral cavity of cats as a single treatment.
Four cats were enrolled in this study. Each cat presented with mild to moderate gingival inflammation. The cats were allocated to two treatment groups according to severity of gingival inflammation. Group 1 cats, those with mild cases of gingivitis, were dosed on study Day 0 with a diluted RTX solution (12.5 μg/mL) applied topically to the maxillary and mandibular gingival tissue (buccal and palatal/lingual gingiva). Group 2 cats, those with current or recent historical moderate gingivitis, underwent the same treatment regimen on study Day 0 with the addition of application to the palatal and sublingual tissue.
Total dose of RTX tested per cat (diluted with sterile saline for a total volume of 2 mL) was: 17.5 μg (Group 1 cat), 23.75 μg (Group 1 cat), or 25 μg (Group 2 cats) RTX. One cat (pudding) received 17.5 μg RTX, one cat (Clank) received 23.75 μg RTX, and two cats (Forbes and Bianca) received 25 μg RTX. A single application of RTX was topically applied inside the mouth of each cat. The RTX was applied to the entire mouth.
Cats were anesthetized during treatment administration and for 30 minutes post-dose. Diphenhydramine (2 mg/kg, IM) was given as an anesthetic pre-treatment a minimum of 30 minutes prior to dosing. Induction was then performed using a combination of medetomidine 0.03 mg/kg, ketamine 5 mg/kg and butorphanol 0.2 mg/kg; dose volume 0.1 mL/kg, IM. Following application of a lidocaine hydrochloride spray to the larynx, intubation was performed and anesthesia was maintained using an isofluraneoxygen mixture. Standard anesthetic monitoring of vital signs was performed approximately every 5-10 minutes following dosing and precautions were taken to avoid low body temperature throughout the procedure. Cats remained under anesthesia for 30 minutes following dosing for additional monitoring. Upon removal from anesthetic, reversal drug atipamezole (0.2 mg/kg, IM) was administered.
To assess RTX tolerance, adverse event monitoring was performed using the following parameters: measurement of vital signs during anesthesia; physical examinations performed 0.25, 0.5, 1, 2, 3 and 4 hours following recovery from anesthesia (i.e. removal of endotracheal tube) as well as 1, 3 and 7 days post-dose in both the morning (AM) and afternoon (PM); twice daily clinical observations; daily food consumption measurement.

[3] = system: oral pain associated with Feline Chronic Gingivostomatitis (FCGS); assay: Veterinarian Specific Outcome Measures (VSOM) in client-owned cats after oral topical RTX; type: in vivo, cat; conditions: for treatment success rate (VSOM): Day 28 vs Day 0, success = reduction of at least 2 in total VSOM score
From the text: (§1) Characterize the required dose of RTX applied topically to the oral mucosa for the control of pain associated with Feline Chronic Gingivostomatitis (FCGS).
• Cat less than 12 months of age. • Cat's body weight less than 2 kg. • Cat unlikely to survive a 30-min anesthesia or sedation procedure. • Cat was unlikely to survive 4 weeks due to health issues other than oral pain. • Cat was unavailable for the entire study duration or was felt to be unsuitable by the Investigator for another reason. • Cat was participating in another study • Cat was pregnant or lactating. • Cat underwent an oral surgical procedure within 30 days prior to screening. • Cat received cannabinoid agonists such as cannabidiol (CBD) or anandamide within 28 days of starting the study. • Cat received oral corticosteroids within 1 week of starting the study, or injectable corticosteroids within 6 weeks of starting the study, and/or required medication or supplements during the study that may have interfered with the objective of the study.
Twenty-eight cats, each weighing over 2 kg and over 12 months of age, were enrolled in this study. There was no apparent trend in the ages of cats enrolled in the study. Enrolled cats were physically examined (their physical exam findings such as general appearance, ears/eyes/mouth, abdominal/gastrointestinal, musculoskeletal, neurological urogenital, lymphatic etc. . . . were recorded). Their weight and vital signs were recorded as well.
Veterinarian Specific Outcome Measures (VSOM)—Qualitative assessment of common stomatitis signalment was carried out prior to the beginning of treatment and on day 7, 14, and 28 (at the conclusion of treatment). Cats were assessed for drooling, pain while eating, pain at manipulation and swelling of the oral tissue. Each clinical sign was graded from 1 to 5 (1=no problem; 5=Impossible).
Treatment success was defined as “a reduction of at least 2 in total VSOM score at Day 28 compared to VSOM score at Day 0. A decrease of less than 2, no change, or an increase in total score was defined as treatment failure. Cats presenting an increase in any individual VSOM were considered a treatment failure regardless of total VSOM score. […] The results of each cohort were not compared statistically; only descriptive statistics were generated due to the small number of cats per cohort and lack of randomization. However, there was no evidence of a relationship between treatment success and dose.
(§2) Each animal was randomly assigned to one of three groups. Ten cats (group 1) were treated with 6.25 μg RTX (total) diluted with sterile saline for a total volume of 2 mL. Nine cats (group 2) were treated with 12.5 μg RTX (total) diluted with sterile saline for a total volume of 2 mL. Nine cats (group 3) were treated with 25 μg RTX (total) diluted with sterile saline for a total volume of 2 mL.
RTX solution was applied using a clean cotton tip applicator directly to the visible lesions and adjacent tissue. The non-target dosing areas (caudal mouth/pharynx) were protected using a 4×4 gauze. Any targeted area was dried with sterile gauze or using the air-water syringe system. The saturated applicator for was gently pressed along the targeted areas for 10 seconds. Two to three coats per lesion were applied using the same cotton tip applicator. The area was allowed to dry for a few seconds before moving to the next lesion by exposing the area to the air or by gently using the air-water syringe system. […]

TRPV1 receptor = TRPV1 receptor (Homo sapiens, UniProt Q8NER1); conditions: cited from earlier work
TRPV1 receptor, sequence (Q8NER1 whole entry): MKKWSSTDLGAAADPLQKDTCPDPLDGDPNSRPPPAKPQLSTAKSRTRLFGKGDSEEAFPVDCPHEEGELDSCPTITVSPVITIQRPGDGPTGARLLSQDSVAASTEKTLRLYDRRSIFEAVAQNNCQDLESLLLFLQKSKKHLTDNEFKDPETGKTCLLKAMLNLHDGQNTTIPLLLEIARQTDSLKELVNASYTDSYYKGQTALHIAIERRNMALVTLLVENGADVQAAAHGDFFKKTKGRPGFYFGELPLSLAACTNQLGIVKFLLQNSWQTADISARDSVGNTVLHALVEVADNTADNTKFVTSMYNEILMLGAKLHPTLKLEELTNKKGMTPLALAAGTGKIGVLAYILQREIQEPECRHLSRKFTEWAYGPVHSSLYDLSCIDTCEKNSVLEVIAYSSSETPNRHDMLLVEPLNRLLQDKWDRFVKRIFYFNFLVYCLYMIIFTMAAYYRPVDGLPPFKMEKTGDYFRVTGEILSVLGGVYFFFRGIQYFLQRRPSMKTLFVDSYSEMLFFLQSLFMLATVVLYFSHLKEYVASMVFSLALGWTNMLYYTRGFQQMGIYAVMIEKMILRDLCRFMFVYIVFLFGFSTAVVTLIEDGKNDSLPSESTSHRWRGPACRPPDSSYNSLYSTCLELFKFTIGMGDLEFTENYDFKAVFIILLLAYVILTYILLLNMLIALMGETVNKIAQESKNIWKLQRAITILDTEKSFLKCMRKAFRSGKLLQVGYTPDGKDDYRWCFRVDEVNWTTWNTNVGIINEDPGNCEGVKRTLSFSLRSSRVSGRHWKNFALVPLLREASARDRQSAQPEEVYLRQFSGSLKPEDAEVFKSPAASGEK

[4] = system: oral inflammation, Feline Chronic Gingivostomatitis (FCGS); assay: Stomatitis Disease Activity Index (SDAI) in client-owned cats after oral topical RTX; type: in vivo, cat; conditions: for treatment success (SDAI): success = 20% reduction in Day 28 SDAI vs Day 0 (post-hoc)
Method: as §1
Stomatitis Disease Activity Index (SDAI)—This semi-quantitative assessment of oral inflammation was carried out prior to the beginning of treatment (day 0) and at day 28 (at the conclusion of treatment). Cats were assessed by owner for cat's interest in food and ability to eat, perceived comfort, grooming behavior, and activity levels. Each assessment was graded from 0 to 3 (0=no problem; 3=severe problems).
The average of the scores in Table 1 (total score divided by 4) were entered in the “owner evaluation” box on the initial SDAI (Stomatitis Disease Activity Index) tabulation sheet of Table 2. The rest of the questions on SDAI survey were completed by the veterinarian prior to the beginning of treatment (day 0) and at day 28 (at the conclusion of treatment). Each assessment was graded from 0 to 3 (0=no problem; 3=severe problems) as follows:
Treatment success using the SDAI metric was defined post-hoc as a 20% reduction in the Day 28 SDAI compared to Day 0. Based on this definition, the percentage success was 100.0%, 80.0% and 44.4% for Cohorts 1, 2, and 3 respectively. The discrepancy in the success rate of Cohort 3 using the two metrics may be due to a higher baseline SDAI score.
as §2
RTX solution was applied using a clean cotton tip applicator directly to the visible lesions and adjacent tissue. The non-target dosing areas (caudal mouth/pharynx) were protected using a 4×4 gauze. Any targeted area was dried with sterile gauze or using the air-water syringe system. The saturated applicator for was gently pressed along the targeted areas for 10 seconds. Two to three coats per lesion were applied using the same cotton tip applicator. The area was allowed to dry for a few seconds before moving to the next lesion by exposing the area to the air or by gently using the air-water syringe system. When possible, and in absence of active bleeding due to manipulation, the RTX solution was allowed to drip into the gingival sulcus. If a target area was actively bleeding, an attempt to decrease or stop the bleeding was made before the RTX application.

C=C(C)[C@]12C[C@@H](C)[C@@]34O[C@](Cc5ccccc5)(O[C@@H]1[C@@H]3C=C(COC(=O)Cc1ccc(O)c(OC)c1)C[C@]1(O)C(=O)C(C)=C[C@@H]41)O2 [RTX, resiniferatoxin]
severity of adverse events ([1]; 6.25-25 μg RTX topical oral): Most of the AE were graded as mild | serious adverse events (SAE) during in-life ([1]; 28 cats, 6.25-25 μg RTX topical oral): One | mortality ([1]; 28 cats, 6.25-25 μg RTX topical oral, 28 days): No mortality | signs of systemic RTX exposure ([1]; application on inflamed oral mucosa): did not exhibit signs of systemic RTX exposure | ability to eat ([1]; assessed days 0, 7, 14, 28, all cohorts): most of the cats in all cohorts that completed the study had an improvement in the ability to eat | cats with normal body weights ([1]; weighed days 0, 7, 14, 28): 24 of the 28 | time to resolution of clinical signs (panting, hypersalivation, tachycardia, restlessness) post-treatment ([1]; without medical intervention): ≤ 3 h | time to resolution of mild increases in severity of gingivitis ([2]; 2 cats, without intervention): ≤ 3 days post-dose | food consumption ([2]; 8 days following RTX administration): returned to normal by day seven | body weight ([2]; day 8 vs before administration): by day 8 the weight was back to normal | tolerability ([2]; single topical oral application 17.5-25 μg RTX (12.5 μg/mL), 4 cats, followed 8 days): well tolerated with only mild and transient adverse events | control of pain and inflammation ([3]; 6.25 μg RTX, 28 days): effective in controlling pain and inflammation for 28 days | treatment success rate (VSOM) ([3]; Cohort 1, 6.25 μg RTX topical oral): 90.0% | treatment success rate (VSOM) ([3]; Cohort 2, 12.5 μg RTX topical oral): 80.0% | treatment success (VSOM) on Day 14 ([3]; Cohort 2, 12.5 μg RTX, Day 14): all cats in Cohort 2 were a success | treatment success rate (VSOM) ([3]; Cohort 3, 25 μg RTX topical oral): 88.9% | potency relative to capsaicin (TRPV1 receptor; TRPV1 receptor agonist): 1000-10,000 times | Scoville scale (TRPV1 receptor): 16 billion | treatment success (SDAI) ([4]; Cohort 1, 6.25 μg RTX): 100.0% | treatment success (SDAI) ([4]; Cohort 2, 12.5 μg RTX): 80.0% | treatment success (SDAI) ([4]; Cohort 3, 25 μg RTX): 44.4% | percent improvement in SDAI ([4]; day 0 to day 28): about 60%
